From ChEMBL document CHEMBL5150013, “The Repertoire of Small-Molecule PET Probes for Neuroinflammation Imaging: Challenges and Opportunities beyond TSPO” (J Med Chem, 2021)

Legend:
[1] = target: Sphingosine 1-phosphate receptor 2 (Homo sapiens, UniProt O95136)
[2] = cynomolgus monkey, in vivo, 2 h
[3] = target: Cannabinoid receptor 2 (Homo sapiens, UniProt P34972)
[4] = rat, in vivo, 2 h
[5] = target: T1, Prostaglandin G/H synthase 2 (Homo sapiens, UniProt P35354)
T1 sequence (P35354 whole entry): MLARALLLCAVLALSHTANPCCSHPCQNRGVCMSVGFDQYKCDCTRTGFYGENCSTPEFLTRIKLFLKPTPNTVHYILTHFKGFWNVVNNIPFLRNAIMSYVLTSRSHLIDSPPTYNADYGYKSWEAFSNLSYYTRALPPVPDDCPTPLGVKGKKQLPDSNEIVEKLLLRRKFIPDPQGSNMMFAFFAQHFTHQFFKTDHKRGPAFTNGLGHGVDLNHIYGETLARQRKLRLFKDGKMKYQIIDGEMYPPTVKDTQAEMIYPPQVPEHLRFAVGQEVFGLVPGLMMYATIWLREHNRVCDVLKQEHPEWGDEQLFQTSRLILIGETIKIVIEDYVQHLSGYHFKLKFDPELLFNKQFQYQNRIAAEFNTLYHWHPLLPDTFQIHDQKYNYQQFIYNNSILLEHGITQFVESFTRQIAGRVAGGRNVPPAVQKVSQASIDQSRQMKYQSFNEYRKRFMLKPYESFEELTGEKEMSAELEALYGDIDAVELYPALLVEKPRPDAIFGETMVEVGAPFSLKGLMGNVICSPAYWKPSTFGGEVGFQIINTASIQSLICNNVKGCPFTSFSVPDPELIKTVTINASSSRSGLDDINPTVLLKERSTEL

[6] = physchem; settings: octanol/water
[7] = target: Prostaglandin G/H synthase 1 (Homo sapiens, UniProt P23219)
[8] = in vivo; settings: rat
[9] = target: T2, P2X purinoceptor 7 (Homo sapiens, UniProt Q99572)
T2 sequence (Q99572 whole entry): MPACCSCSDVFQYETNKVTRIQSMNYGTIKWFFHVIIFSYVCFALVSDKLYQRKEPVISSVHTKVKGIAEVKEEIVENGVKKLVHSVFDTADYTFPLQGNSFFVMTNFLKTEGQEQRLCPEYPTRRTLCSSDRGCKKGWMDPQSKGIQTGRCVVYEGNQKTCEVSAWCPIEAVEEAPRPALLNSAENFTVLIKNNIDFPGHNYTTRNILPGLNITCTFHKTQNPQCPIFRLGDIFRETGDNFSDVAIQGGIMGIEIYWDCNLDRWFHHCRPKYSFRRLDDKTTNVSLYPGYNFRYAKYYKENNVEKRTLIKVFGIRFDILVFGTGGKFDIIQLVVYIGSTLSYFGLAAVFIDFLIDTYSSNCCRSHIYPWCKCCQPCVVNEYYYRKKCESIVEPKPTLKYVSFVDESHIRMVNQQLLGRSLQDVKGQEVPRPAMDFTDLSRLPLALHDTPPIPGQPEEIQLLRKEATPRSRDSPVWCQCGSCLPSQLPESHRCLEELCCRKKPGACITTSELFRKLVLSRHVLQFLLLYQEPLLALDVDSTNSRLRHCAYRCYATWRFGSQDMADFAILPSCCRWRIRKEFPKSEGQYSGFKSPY

[10] = mouse, in vivo, 0.05 h
[11] = target: P2Y purinoceptor 12 (Homo sapiens, UniProt Q9H244); assay type: functional
[12] = human, Brain, 2 min
[13] = mouse, in vivo
[14] = rhesus monkey, in vivo
[15] = in vivo; settings: mouse, hcc4006
[16] = in vivo; settings: mouse
[17] = primates, Brain, 5 min
[18] = rhesus monkey, in vivo, 7 min
[19] = rhesus monkey, in vivo, 7 min; remark: listed apart in the source
[20] = primates, Brain
[21] = primates, Brain, 1.417 h
[22] = mouse, in vivo, 0.5 h
[23] = mouse, in vivo, 0.5 h; remark: listed apart in the source
[24] = papio anubis, in vivo
[25] = target: T3, Amine oxidase [flavin-containing] B (Homo sapiens, UniProt P27338)
T3 sequence (P27338 whole entry): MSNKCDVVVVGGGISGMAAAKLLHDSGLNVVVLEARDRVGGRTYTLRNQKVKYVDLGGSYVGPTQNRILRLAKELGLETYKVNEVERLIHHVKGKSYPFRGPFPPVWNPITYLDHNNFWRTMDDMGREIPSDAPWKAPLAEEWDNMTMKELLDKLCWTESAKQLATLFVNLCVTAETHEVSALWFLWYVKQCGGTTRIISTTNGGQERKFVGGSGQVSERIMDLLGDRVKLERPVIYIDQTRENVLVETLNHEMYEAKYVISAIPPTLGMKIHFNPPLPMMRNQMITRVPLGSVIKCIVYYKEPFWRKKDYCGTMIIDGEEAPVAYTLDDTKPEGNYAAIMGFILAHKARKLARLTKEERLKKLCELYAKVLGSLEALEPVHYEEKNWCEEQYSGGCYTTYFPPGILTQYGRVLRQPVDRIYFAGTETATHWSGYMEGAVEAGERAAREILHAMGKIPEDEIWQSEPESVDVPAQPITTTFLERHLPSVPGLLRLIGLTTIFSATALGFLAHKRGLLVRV

[26] = papio anubis, in vivo; remark: listed apart in the source
[27] = target: T2, P2X purinoceptor 7; remark: listed apart in the source
[28] = primates, Brain; remark: listed apart in the source
[29] = in vivo; settings: C57BL/6, mouse
[30] = target: T3, Amine oxidase [flavin-containing] B; remark: listed apart in the source
[31] = papio papio, in vivo
[32] = mouse, in vivo; remark: listed apart in the source
[33] = mouse, in vivo, 20 min
[34] = in vivo; settings: mouse; remark: listed apart in the source
[35] = mouse, in vivo; remark: listed apart in the source
[36] = mouse, in vivo, 10 min
[37] = in vivo; settings: mouse; remark: listed apart in the source
[38] = in vivo; settings: mouse; remark: listed apart in the source
[39] = rhesus monkey, in vivo; remark: listed apart in the source
[40] = target: Sphingosine 1-phosphate receptor 1 (Homo sapiens, UniProt P21453)
[41] = primates, Brain, 4 min
[42] = in vivo; settings: C3H, mouse, iv, 10 mg/kg
[43] = in vivo; settings: C3H, mouse, iv, 10 mg/kg; remark: listed apart in the source

Chain of Prostaglandin G/H synthase 1 (P23219 whole entry): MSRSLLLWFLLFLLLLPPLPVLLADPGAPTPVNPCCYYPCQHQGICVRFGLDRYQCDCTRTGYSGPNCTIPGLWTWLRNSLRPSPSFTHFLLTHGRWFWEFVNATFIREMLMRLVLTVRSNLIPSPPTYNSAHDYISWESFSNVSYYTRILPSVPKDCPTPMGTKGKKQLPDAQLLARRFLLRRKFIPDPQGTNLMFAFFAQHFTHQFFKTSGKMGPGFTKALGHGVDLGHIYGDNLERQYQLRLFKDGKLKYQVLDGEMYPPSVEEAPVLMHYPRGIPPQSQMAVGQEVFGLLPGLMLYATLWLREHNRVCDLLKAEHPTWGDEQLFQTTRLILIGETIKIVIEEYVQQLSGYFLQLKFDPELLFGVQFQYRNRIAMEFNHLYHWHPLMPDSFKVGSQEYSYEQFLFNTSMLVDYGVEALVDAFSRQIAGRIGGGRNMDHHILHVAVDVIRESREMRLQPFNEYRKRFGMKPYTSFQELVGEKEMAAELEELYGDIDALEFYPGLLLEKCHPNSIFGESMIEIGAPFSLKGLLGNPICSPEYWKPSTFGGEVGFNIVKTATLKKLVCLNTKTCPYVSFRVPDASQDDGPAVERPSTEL
Chain of Sphingosine 1-phosphate receptor 2 (O95136 whole entry): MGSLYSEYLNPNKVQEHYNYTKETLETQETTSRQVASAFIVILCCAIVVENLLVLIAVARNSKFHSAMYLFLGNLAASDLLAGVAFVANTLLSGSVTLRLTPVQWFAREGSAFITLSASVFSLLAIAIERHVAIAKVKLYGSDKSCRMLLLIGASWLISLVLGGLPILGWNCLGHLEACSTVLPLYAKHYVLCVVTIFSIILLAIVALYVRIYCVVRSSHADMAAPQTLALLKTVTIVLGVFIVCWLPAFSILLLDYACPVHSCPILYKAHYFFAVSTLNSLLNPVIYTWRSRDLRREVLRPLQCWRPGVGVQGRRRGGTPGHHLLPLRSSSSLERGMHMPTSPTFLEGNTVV
Chain of P2Y purinoceptor 12 (Q9H244 whole entry): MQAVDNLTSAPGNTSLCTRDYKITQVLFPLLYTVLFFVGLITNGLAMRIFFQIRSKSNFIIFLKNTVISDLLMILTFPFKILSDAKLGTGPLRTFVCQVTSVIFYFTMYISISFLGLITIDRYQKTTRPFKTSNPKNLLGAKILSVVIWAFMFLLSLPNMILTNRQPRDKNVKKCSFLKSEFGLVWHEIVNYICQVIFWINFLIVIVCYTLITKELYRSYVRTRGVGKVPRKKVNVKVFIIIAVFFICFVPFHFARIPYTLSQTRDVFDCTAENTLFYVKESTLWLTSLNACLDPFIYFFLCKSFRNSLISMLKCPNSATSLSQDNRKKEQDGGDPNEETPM
Chain of Cannabinoid receptor 2 (P34972 whole entry): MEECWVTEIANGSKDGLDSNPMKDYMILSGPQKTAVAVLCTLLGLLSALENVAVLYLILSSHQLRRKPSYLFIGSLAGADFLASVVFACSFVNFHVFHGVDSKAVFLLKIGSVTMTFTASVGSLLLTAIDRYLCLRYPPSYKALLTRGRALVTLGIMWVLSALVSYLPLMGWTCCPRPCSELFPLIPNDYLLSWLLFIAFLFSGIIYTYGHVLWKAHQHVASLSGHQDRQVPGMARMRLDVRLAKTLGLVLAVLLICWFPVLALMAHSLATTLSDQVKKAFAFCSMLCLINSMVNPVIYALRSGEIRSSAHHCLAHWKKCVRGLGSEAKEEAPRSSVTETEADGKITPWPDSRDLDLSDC
Chain of Sphingosine 1-phosphate receptor 1 (P21453 whole entry): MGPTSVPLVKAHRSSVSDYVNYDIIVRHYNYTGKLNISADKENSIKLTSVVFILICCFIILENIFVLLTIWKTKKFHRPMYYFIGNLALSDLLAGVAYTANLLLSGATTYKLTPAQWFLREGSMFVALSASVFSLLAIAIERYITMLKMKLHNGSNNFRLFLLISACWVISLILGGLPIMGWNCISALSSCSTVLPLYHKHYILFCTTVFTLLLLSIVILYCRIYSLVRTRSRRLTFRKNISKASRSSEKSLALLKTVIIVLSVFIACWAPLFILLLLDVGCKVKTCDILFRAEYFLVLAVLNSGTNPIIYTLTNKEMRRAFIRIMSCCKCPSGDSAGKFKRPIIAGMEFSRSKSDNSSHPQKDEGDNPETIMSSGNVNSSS

Cc1nn(C)c2nc(NNC(=O)Nc3cc(Cl)nc(Cl)c3)cc(C(C)C)c12
IC50 [1]: 68.5 nM

C#CCN(C)[C@H](C[18F])Cc1ccccc1
SUV [2]: 6

CCCCOc1c(OC)ccc2cc(C(=O)NC3CCCCC3)c(=O)[nH]c12
Ki [3]: 9.6 nM

CS(=O)(=O)c1ccc(-c2ccsc2-c2ccc(F)cc2)cc1
SUV [4]: 0.17
Ki [5]: 250 nM

CCOCCn1cc(C(=O)NC23CC4CC(CC(C4)C2)C3)c(=O)c2cccc(OC)c21
logD [6]: 2.8

CS(=O)(=O)c1ccc(-n2c(-c3ccc(O[11CH3])c(F)c3)cnc2Cl)cc1
IC50 [7]: 3300 nM

OCc1cn(Cc2ccc(-c3noc(-c4ccc(OCC[18F])c(C(F)(F)F)c4)n3)cc2)nn1
tissue uptake at 5 min [8]: 0.46 %ID/g

N#C/N=C(/NCc1ccc([18F])cc1)Nc1cccc2ncccc12
Ki [9]: 2.9 nM

[13CH3]N1C=C(C(N)=O)Cc2ccccc21
SUV [10]: 3.5

[11CH3]Oc1ccc(-c2cnc(Cl)n2-c2ccc(S(N)(=O)=O)cc2)cc1F
IC50 [7]: 10000 nM

[11CH3]Oc1ccc(Cl)c(C(=O)NCC23CC4(F)CC(F)(CC(F)(C4)C2)C3)c1
EC50 [11]: 60 nM

COC(=O)C([11CH3])c1cccc(C(=O)c2ccccc2)c1 (stereo not given)
SUV [12]: 1.5
IC50 [7]: 47 nM
SUV [13]: 0.97

[11CH3]Oc1ccc(Cc2cn[nH]c2)nc1-c1cccc([N+](=O)[O-])c1
Vd [14]: 37%

Cc1ccc(-c2ccc3cc(OC[C@H](O)C[18F])ccc3n2)cn1
tissue uptake at 2 min [15]: 7.85 %ID/g
tissue uptake at 2 min [16]: 0.2 %ID/g

NS(=O)(=O)c1ccc(-n2nc3ccccc3c2-c2ccc([18F])cc2)cc1
IC50 [7]: 30000 nM

OCCOCc1ccc(-c2noc(-c3ccc(OCC[18F])c(C(F)(F)F)c3)n2)cc1
SUV [17]: 3.2

[2H]C([2H])([18F])Oc1nc(-c2ccc(OC)cc2)n(-c2ccc(OC)cc2)n1
SUV [18]: 4.11
SUV [19]: 1.05
SUV [20]: 54%
SUV [21]: 1.99

Cc1nn(C)c2nc(NNC(=O)C(C)c3cc(Cl)nc(O[11CH3])c3)cc(C(C)C)c12 (stereo not given)
SUV [22]: 0.48
IC50 [1]: 9.52 nM
SUV [23]: 0.58

COCC1CN(c2noc3cc(OCCCC(F)(F)F)ccc23)[11C](=O)O1 (stereo not given)
Vd [24]: 10.3 ml/cm3
Ki [25]: 2.9 nM
Vd [26]: 10.9 ml/cm3

COc1ccc(CC(=O)NC(N/C(=N/C#N)Nc2cccc3ncccc23)C(C)(C)C)cc1O[11CH3] (stereo not given)
IC50 [27]: 40 nM

COc1ccc(-c2nc(O[11CH3])nn2-c2ccc(OC)cc2)cc1
SUV [21]: 0.62
SUV [28]: 4.26

Cc1ccccc1-c1ccc(-c2nc(-c3ccc(CN(C)CCC(=O)O)c(F)c3)no2)cc1C(F)(F)F
tissue uptake at 1 h [29]: 7 %ID/g

N#CCCn1nc(-c2ccc(OCc3ccccc3)cc2)o[11c]1=O
IC50 [30]: 4 nM
Drug uptake [31]: 70%

CN1c2cc(N)ccc2-c2ccc(N)cc2C1c1ccc(OCC[18F])cc1 (stereo not given)
Drug uptake [32]: 10 %ID/cm3
Drug uptake [33]: 150%

[11CH3]Oc1ccc(-c2c(-c3ccc(S(N)(=O)=O)cc3)[nH]c3ccccc23)cc1
IC50 [7]: 10000 nM

O=C1Nc2c(Cl)ccc(OCC[18F])c2C2(CCCCC2)N1
tissue uptake [34]: 5 %ID/g
SUV [35]: 1.74

O=C(O)C1CN(Cc2ccc(-c3noc(-c4ccc(OCC[18F])c(C(F)(F)F)c4)n3)cc2)C1
tissue uptake at 5 min [8]: 0.027 %ID/g
SUV [36]: 7

CS(=O)(=O)c1ccc(-c2cc(C(F)(F)F)nc(NCc3ccc([18F])cc3)n2)cc1
tissue uptake at 1 h [37]: 3.79 %ID/g
tissue uptake at 1 h [38]: 1.74 %ID/g

OCCOCCOCc1ccc(-c2noc(-c3ccc(OCC[18F])c(C(F)(F)F)c3)n2)cc1
SUV [28]: 0.7

CS(=O)(=O)c1ccc(-c2cc(O[11CH3])nc(NCc3cccs3)n2)cc1
IC50 [7]: > 1000 nM
Drug uptake [39]: 41%

CN1c2cc(N)ccc2-c2ccc(N)cc2C1c1ccc([18F])cc1 (stereo not given)
SUV [35]: 2.3

OCC(O)c1ccc(-c2noc(-c3ccc(OCC[18F])c(C(F)(F)F)c3)n2)cc1 (stereo not given)
IC50 [40]: 15.4 nM
SUV [41]: 2.5

Cc1ccc(-n2nc(C(F)(F)F)cc2-c2ccc(S(=O)(=O)Nc3ccc([18F])cc3)cc2)cc1
IC50 [7]: 100000 nM

[11CH3]N1C(=O)CC[C@H]1C(=O)NCc1cccc(C(F)(F)F)c1Cl
IC50 [27]: 3 nM

OCc1ccc(-c2noc(-c3ccc(OCC[18F])c(C(F)(F)F)c3)n2)cc1
SUV [41]: 3.8

COc1ccc(-n2nc(OCC(F)(F)F)nc2-c2ccc(O[11CH3])cc2)cc1
SUV [20]: 54%
SUV [21]: 1.99
SUV [28]: 4.29

CN([11CH3])CCc1ccccc1
tissue uptake at 1 min [42]: 7.9 %ID/g
tissue uptake at 1 h [43]: 2.8 %ID/g

[11CH3]Oc1ccc(Cc2ccncc2)nc1-c1cccc([N+](=O)[O-])c1
Vd [14]: 48%
